Measured values reported in PubChem BioAssay (NCI).
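A five-concentration, 48-hour dose response in 96-well plates underlies each endpoint, interpolated linearly between surrounding concentrations. GI50: concentration for 50% inhibition of growth. TGI is the concentration that stops growth completely.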

Key:
Assay in all cases: NCI tumour cell line growth inhibition, 48 h
UACC-257 melanoma = tested on: UACC-257 melanoma
M14 melanoma = tested on: M14 melanoma
MALME-3M melanoma = tested on: MALME-3M melanoma
NCI-H23 lung = tested on: NCI-H23 lung
A498 renal = tested on: A498 renal
OVCAR-8 ovarian = tested on: OVCAR-8 ovarian
ACHN renal = tested on: ACHN renal
OVCAR-3 ovarian = tested on: OVCAR-3 ovarian
DLD-1 colon = tested on: DLD-1 colon
HOP-18 NSCLC = tested on: HOP-18 NSCLC
M19-MEL melanoma = tested on: M19-MEL melanoma
P388 leukemia = tested on: P388 leukemia

Row | Structure (SMILES) | GI50 (UACC-257 melanoma) [µM] | TGI (UACC-257 melanoma) [µM] | GI50 (M14 melanoma) [µM] | TGI (M14 melanoma) [µM] | GI50 (MALME-3M melanoma) [µM] | TGI (MALME-3M melanoma) [µM] | GI50 (NCI-H23 lung) [µM] | TGI (NCI-H23 lung) [µM] | GI50 (A498 renal) [µM] | TGI (A498 renal) [µM] | GI50 (OVCAR-8 ovarian) [µM] | TGI (OVCAR-8 ovarian) [µM] | GI50 (ACHN renal) [µM] | TGI (ACHN renal) [µM] | GI50 (OVCAR-3 ovarian) [µM] | TGI (OVCAR-3 ovarian) [µM] | TGI (DLD-1 colon) [µM] | TGI (HOP-18 NSCLC) [µM] | TGI (M19-MEL melanoma) [µM] | TGI (P388 leukemia) [µM]
1 | O=C(c1ccccc1)c1nn(-c2ccccc2)c2nc3nc(-c4ccccc4)cc(=O)n3nc12 | 30.7 | 61.4 | 27.3 | 81.4 | 0.0477 | 34.6 | 33.1 | > 100 | 44.8 | > 100 | 27.1 | 84.8 | 37.1 | > 100 | 19.9 | 49.5 | – | – | – | –
2 | CCCCS(=O)CC(CO)NC(=O)/C=C/c1c(C)[nH]c(=O)[nH]c1=O (stereo not given) | – | 55 | – | – | – | 14.6 | – | 44.6 | – | 32.5 | – | 32.4 | – | – | – | 15 | 72.1 | 183 | 18.1 | 6.93
3 | C[C@]12CCc3sc(-c4cccc(F)c4)nc3C1=CC[C@@H]1[C@@H]2CC[C@]2(C)C(=O)CC[C@@H]12 | 6.12 | > 100 | 6.62 | > 100 | 1.8 | 4.13 | 3.54 | 33.5 | 3.2 | 17.9 | 3.45 | > 100 | 1.64 | 3.01 | 1.92 | 3.79 | – | – | – | –
4 | O=C1CCCN1CCCN=c1cc2n(-c3ccc(Cl)cc3)c3ccccc3nc-2cc1Nc1ccc(Cl)cc1 | – | 24.7 | – | – | – | 38.3 | – | 25.1 | – | 43.2 | – | 53.2 | – | – | – | 6.18 | 28.3 | > 92.4 | 5.45 | 13
5 | Cc1c(N=NN(C)C)cc[n+]([O-])c1C | – | > 100 | – | – | – | > 100 | – | > 100 | – | > 100 | – | > 100 | – | – | – | > 100 | > 100 | > 100 | > 100 | > 100
6 | Cc1cc2c(C(C)C)c(O)c(O)c(C=Nc3ccccc3)c2c(O)c1-c1c(C)cc2c(C(C)C)c(O)c(O)c(C=Nc3ccccc3)c2c1O | – | – | – | > 100 | – | > 100 | – | – | – | – | – | > 100 | – | > 100 | – | > 100 | > 100 | – | > 100 | –
7 | CC(C)[C@](O)(C(=O)OCC1=CCN2CC[C@@H](O)[C@@H]12)[C@H](C)O | – | > 375 | – | – | – | > 375 | – | > 375 | – | > 375 | – | > 375 | – | – | – | > 375 | > 375 | > 375 | > 256 | > 375
8 | CCc1c(C)c2ccc(OCC(=O)N=Nc3c(O)[nH]c4ccccc34)c(C)c2oc1=O | – | – | – | – | – | – | 1.13 | > 33.3 | > 33.3 | > 33.3 | – | – | > 33.3 | > 33.3 | – | – | – | – | – | –
